T/C data for 20 compounds are collected here from PubChem BioAssay AID248 (DTP/NCI, 2004).

The test system of this test is L1210 leukemia ip in BDF1 mice, survival T/C. Nature of the test: NCI In Vivo Anticancer Drug Screen. Data for tumor model L1210 Leukemia (intraperitoneal) in B6D2F1 (BDF1) mice. Conditions: endpoint: mean survival time, higher = longer survival. The method, boiled down:
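Transplanted-tumor mice were given test agent; controls received vehicle only. Survival readings from the two groups were divided (treated over control).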

Where [1] appears, read: dose: 100.0 mg/kg/injection, schedule: Q04DX003 (ip), vehicle: saline with Tween-80.
Where [2] appears, read: dose: 200.0 mg/kg/injection, schedule: Q04DX003 (ip), vehicle: saline with Tween-80.
Where [3] appears, read: dose: 400.0 mg/kg/injection, schedule: Q04DX003 (ip), vehicle: saline with Tween-80.
[4] abbreviates: dose: 5.0 mg/kg/injection, schedule: Q01DX001 (ip), vehicle: saline.
[5] abbreviates: dose: 10.0 mg/kg/injection, schedule: Q01DX001 (ip), vehicle: saline.
Setting [6] is: dose: 20.0 mg/kg/injection, schedule: Q01DX001 (ip), vehicle: saline.
Setting [7] is: dose: 100.0 mg/kg/injection, schedule: Q01DX001 (ip), vehicle: saline.
Setting [8] is: dose: 200.0 mg/kg/injection, schedule: Q01DX001 (ip), vehicle: saline.
The mark [9] stands for this setting: dose: 400.0 mg/kg/injection, schedule: Q01DX001 (ip), vehicle: saline.
[10] abbreviates: dose: 50.0 mg/kg/injection, schedule: Q01DX001 (ip), vehicle: saline.
Where [11] appears, read: dose: 100.0 mg/kg/injection, schedule: Q01DX009 (ip), vehicle: Klucel (hydroxypropylcellulose) (HPC).
[12] abbreviates: dose: 200.0 mg/kg/injection, schedule: Q01DX009 (ip), vehicle: Klucel (hydroxypropylcellulose) (HPC).
Setting [13] is: dose: 400.0 mg/kg/injection, schedule: Q01DX009 (ip), vehicle: Klucel (hydroxypropylcellulose) (HPC).
The mark [14] stands for this setting: dose: 100.0 mg/kg/injection, schedule: Q04DX003 (ip), vehicle: saline.
The mark [15] stands for this setting: dose: 200.0 mg/kg/injection, schedule: Q04DX003 (ip), vehicle: saline.
Where [16] appears, read: dose: 400.0 mg/kg/injection, schedule: Q04DX003 (ip), vehicle: saline.

Inconclusive results and toxic doses are left out.

Take `CCCCCC1(O)C2CCCC1CCC2` (centres undefined): the T/C under setting [1] was 94 % of control, the T/C under setting [2] was 97 % of control and the T/C under setting [3] is 105 % of control.
Turning to `NC(CCSSCCC(N)C(=O)O)C(=O)O` (centres undefined), the T/C runs as follows: (dose: 12.5 mg/kg/injection, schedule: Q04DX002 (ip), vehicle: Klucel (hydroxypropylcellulose) (HPC)) 113 % of control; (dose: 25.0 mg/kg/injection, schedule: Q04DX002 (ip), vehicle: Klucel (hydroxypropylcellulose) (HPC)) 97 % of control; (dose: 50.0 mg/kg/injection, schedule: Q04DX002 (ip), vehicle: Klucel (hydroxypropylcellulose) (HPC)) 103 % of control; (dose: 100.0 mg/kg/injection, schedule: Q04DX003 (ip), vehicle: Klucel (hydroxypropylcellulose) (HPC)) 93 % of control; (dose: 200.0 mg/kg/injection, schedule: Q04DX003 (ip), vehicle: Klucel (hydroxypropylcellulose) (HPC)) 101 % of control; (dose: 400.0 mg/kg/injection, schedule: Q04DX003 (ip), vehicle: Klucel (hydroxypropylcellulose) (HPC)) 93 % of control.
With `COc1cc(C(=O)CO)cc(OC)c1OC(C)=O`, the T/C under setting [4] is 97 % of control; the T/C under setting [5] was 103 % of control; the T/C under setting [6] is 89 % of control; the T/C (dose: 40.0 mg/kg/injection, schedule: Q01DX001 (ip), vehicle: saline) is 97 % of control; the T/C (dose: 80.0 mg/kg/injection, schedule: Q01DX001 (ip), vehicle: saline) is 92 % of control.
As to `Cc1nc(N)[nH]c(=O)c1CCCNCc1ccco1`, the T/C was 100 % of control under setting [7], 103 % of control under setting [8] and 99 % of control under setting [9].
`COC(c1ccccc1)c1ccccc1`: the T/C by setting is: under setting [10], 109 % of control; under setting [7], 94 % of control; under setting [8], 100 % of control; under setting [9], 94 % of control.
Take `NC(=S)c1cn(C2OC(CO)C(O)C2O)c2ncnc(N)c12` (centres undefined): the T/C by setting is: (dose: 0.5 mg/kg/injection, schedule: Q03HX016 (ip), vehicle: other) 118 % of control; (dose: 0.5 mg/kg/injection, schedule: Q03HX024 (ip), vehicle: saline) 156 % of control; (dose: 1.0 mg/kg/injection, schedule: Q03HX016 (ip), vehicle: other) 118 % of control; (dose: 1.0 mg/kg/injection, schedule: Q03HX024 (ip), vehicle: saline) 172 % of control; (dose: 2.0 mg/kg/injection, schedule: Q03HX016 (ip), vehicle: other) 176 % of control; (dose: 2.0 mg/kg/injection, schedule: Q03HX024 (ip), vehicle: saline) 124 % of control. Further, the T/C is, setting by setting: (dose: 3.75 mg/kg/injection, schedule: Q01DX009 (ip), vehicle: carboxymethylcellulose (CMC)) 110 % of control; (dose: 4.0 mg/kg/injection, schedule: Q08DX002 (ip), vehicle: other) 123 % of control; under setting [4], 112 % of control; (dose: 7.5 mg/kg/injection, schedule: Q01DX001 (ip), vehicle: carboxymethylcellulose (CMC)) 117 % of control; (dose: 8.0 mg/kg/injection, schedule: Q04DX003 (ip), vehicle: saline) 151 % of control; (dose: 8.0 mg/kg/injection, schedule: Q08DX002 (ip), vehicle: other) 123 % of control. Also, the T/C reads like this: under setting [5], 118 % of control; (dose: 15.0 mg/kg/injection, schedule: Q01DX001 (ip), vehicle: carboxymethylcellulose (CMC)) 122 % of control; (dose: 16.0 mg/kg/injection, schedule: Q04DX003 (ip), vehicle: saline) 96 % of control.
For the compound `CCOC(=O)c1cnc2c(ccc3cc(OC)ccc32)c1NCCCN(CC)CC`, the T/C (dose: 50.0 mg/kg/injection, schedule: Q01DX009 (ip), vehicle: Klucel (hydroxypropylcellulose) (HPC)) was 105 % of control; the T/C under setting [11] is 108 % of control; the T/C under setting [12] is 94 % of control.
In the case of `CC(=O)Nc1ccc(NC(=O)/C=C/c2ccccc2)cc1`, the T/C is 103 % of control under setting [11], 95 % of control under setting [12] and 105 % of control under setting [13].
Take `C1CCC(C2CCCC[N-]2)[N-]C1.C1CCC(C2CCCC[N-]2)[N-]C1.C1CCC(C2CCCC[N-]2)[N-]C1.[Fe+6]` (centres undefined): the T/C by setting is: under setting [5], 98 % of control; under setting [6], 104 % of control.
With `Nc1ccccc1N=Cc1cc(F)ccc1[N+](=O)[O-]`, the T/C runs as follows: (dose: 100.0 mg/kg/injection, schedule: Q04DX003 (ip), vehicle: other) 97 % of control; (dose: 200.0 mg/kg/injection, schedule: Q04DX003 (ip), vehicle: other) 102 % of control; (dose: 400.0 mg/kg/injection, schedule: Q04DX003 (ip), vehicle: other) 114 % of control.
Take `CC(=O)OC1COC(n2cnc3c(=O)[nH]c(N)nc32)C(OC(C)=O)C1OC(C)=O` (centres undefined): the T/C reads like this: under setting [10], 104 % of control; under setting [7], 104 % of control; under setting [8], 95 % of control; under setting [9], 93 % of control.
For the compound `CC(C)(C)CC(C)(C)c1ccc(OCCOc2ccccc2NC(=O)c2ccc3ccccc3c2O)cc1`, the T/C was 98 % of control under setting [1], 103 % of control under setting [2] and 86 % of control under setting [3].
In the case of `CCCCCCCCCCCCCCNC1=C(C)C(=O)C(NCCCCCCCCCCCCCC)=C(C)C1=O`, the T/C (dose: 100.0 mg/kg/injection, schedule: Q01DX001 (ip), vehicle: carboxymethylcellulose (CMC)) is 98 % of control; the T/C (dose: 200.0 mg/kg/injection, schedule: Q01DX001 (ip), vehicle: carboxymethylcellulose (CMC)) is 93 % of control; the T/C (dose: 400.0 mg/kg/injection, schedule: Q01DX001 (ip), vehicle: carboxymethylcellulose (CMC)) was 89 % of control.
Regarding `Nc1c(S(=O)(=O)O)ccc2c1C(=O)c1ccccc1C2=O`, the T/C was 90 % of control (dose: 100.0 mg/kg/injection, schedule: Q01DX009 (ip), vehicle: saline); 101 % of control under setting [14]; 97 % of control (dose: 200.0 mg/kg/injection, schedule: Q01DX009 (ip), vehicle: saline); 96 % of control under setting [15]; 92 % of control (dose: 400.0 mg/kg/injection, schedule: Q01DX009 (ip), vehicle: saline); 91 % of control under setting [16].
`CCCCCCCCCC(Br)C(C)(C)COO` (centres undefined): the T/C reads like this: (dose: 50.0 mg/kg/injection, schedule: Q01DX001 (ip), vehicle: water) 97 % of control; (dose: 100.0 mg/kg/injection, schedule: Q01DX001 (ip), vehicle: water) 101 % of control; (dose: 200.0 mg/kg/injection, schedule: Q01DX001 (ip), vehicle: water) 102 % of control.
As to `BrC#CC1=CCCCC1`, the T/C reads like this: (dose: 100.0 mg/kg/injection, schedule: Q01DX009 (ip), vehicle: acetone) 88 % of control; under setting [14], 105 % of control; (dose: 200.0 mg/kg/injection, schedule: Q01DX009 (ip), vehicle: acetone) 86 % of control; under setting [15], 103 % of control; (dose: 400.0 mg/kg/injection, schedule: Q01DX009 (ip), vehicle: acetone) 108 % of control; under setting [16], 107 % of control.
On to `CCCCCC1CCC(C(=O)O)CC1` (centres undefined), for which the T/C was 88 % of control under setting [1] and 93 % of control under setting [2].
In the case of `CC(C)C1N=C(N)N=C(N)N1c1ccc(Cl)c(Cl)c1` (centres undefined), the T/C (dose: 75.0 mg/kg/injection, schedule: Q01DX001 (ip), vehicle: saline) was 105 % of control and the T/C (dose: 150.0 mg/kg/injection, schedule: Q01DX001 (ip), vehicle: saline) was 96 % of control.
Take `O=C1c2nc3ccccc3cc2CN1Cc1ccccc1`: the T/C (dose: 10.0 mg/kg/injection, schedule: Q04DX003 (ip), vehicle: alcohol) is 97 % of control; the T/C (dose: 20.0 mg/kg/injection, schedule: Q04DX003 (ip), vehicle: alcohol) was 96 % of control; the T/C (dose: 40.0 mg/kg/injection, schedule: Q04DX003 (ip), vehicle: alcohol) is 96 % of control; the T/C (dose: 80.0 mg/kg/injection, schedule: Q04DX003 (ip), vehicle: alcohol) was 97 % of control; the T/C (dose: 160.0 mg/kg/injection, schedule: Q04DX003 (ip), vehicle: alcohol) was 92 % of control.
Take `CCOc1ccc(NC(=O)Nc2ccccc2C(F)(F)F)cc1`: the T/C reads like this: under setting [11], 89 % of control; under setting [12], 96 % of control; under setting [13], 100 % of control.
